Results on four compounds are retold here after patent US10183011B2, “Anti-depression compounds” (Board of Regents of the University of Texas System, priority 2009, dated 2019).

Structures are written as SMILES.

The test system of data set [1] is hippocampal neurogenesis in the DG. Put plainly: Comparison of P7C3 compounds and antidepressant drugs: DG BrdU labeling after i.c.v. infusion. The conditions noted are these: 10 μM i.c.v. for 7 days. Type of data set: in vivo, mouse. An excerpt: The neuroprotective efficacies of both P7C3 and P7C3-A20 were next compared to currently marketed antidepressant medications, using screening conditions identical to those by which P7C3 was originally discovered. This experiment was based on the antidepressant actions of P7C3 and P7C3-A20 characterized here, and the dependence on hippocampal neurogenesis for behavioral efficacy of some marketed antidepressant medications in mice.
Proneurogenic efficacies in the DG of P7C3 and P7C3A20 were compared to those of vehicle (artificial cerebrospinal fluid) and several marketed antidepressant compounds (Sigma-Aldrich, St. Louis, Mo.) according to established methods. In brief, mice were housed individually in cages without running wheels or any form of environmental enrichment, in order to create an environment predicted to have as low of a baseline level of hippocampal neurogenesis as possible. Compounds (10 μM, i.c.v.) were administered for 7 days via subcutaneously implanted Alzet osmotic minipumps connected to a cannula directed into the left lateral ventricle, with implantation day designated as day 0. Starting on day 1, mice also received daily injections of BrdU (50 mg/kg, i.p.) at 9 am daily, for 6 days. Twenty four hours after the sixth BrdU injection, mice were transcardially perfused as described above.
Background: Dividing cells build labelled thymidine or BrdU into new DNA.

Data set [2] deals with neural precursor cells in the subgranular zone of the dentate gyrus. Put plainly: In vivo pro-neurogenic efficacy/neuroprotection assay: intracerebroventricular infusion, BrdU incorporation in the dentate gyrus. Set-up: species or system mouse (C57/Bl6). The conditions noted are these: for pro-neurogenic activity in the in vivo hippocampal neurogenesis assay: direct administration into the brain via Alzet minipumps for one week, 10 μM unless stated. As to the method: Compounds were evaluated for pro-neurogenic efficacy/neuroprotection in our standard in vivo assay at 10 μM concentration in four 12 week old adult male C57/Bl6 mice.
In an effort to identify compounds that might stimulate the birth of new neurons, or protect newborn neurons from cell death, a library of 1,000 compounds was screened using an in vivo assay. In the initial screen, compounds were randomly pooled into groups often and administered intracerebroventricularly at a constant rate over seven days into the left lateral ventricle of living mice via Alzet osmotic mini-pumps. Compounds were administered at a concentration of 10 μM for each molecule, making a total solute concentration of 100 μM. After seven days of infusion at a constant rate of 0.5 μL/hour, a total of 84 μL of volume will have left the pump (0.00084 μMoles) and entered the cerebrospinal fluid. The average volume of a brain from a 12 week old male, C57/B6 mouse in our study is 500 mm^3. […] Under these conditions, at the end of one week of infusion each compound would be present at 1.7 μMolar concentration. Since the actual amount of chemical compound in the brain is likely to be only a fraction of this predicted level, it is reasonable to estimate that compounds were administered at mid to low-nanomolar concentrations.
During compound infusion, animals were intraperitoneally (IP) injected daily with the thymidine analog, bromodeoxyuridine (BrdU), as a means of scoring the birth and survival of proliferating neural precursor cells in the hippocampus. Because both social interaction and voluntary exercise are known to stimulate hippocampal neurogenesis, mice were housed individually without access to running wheels throughout the screening period. Following the week-long period of compound administration, animals were perfused and sacrificed. Dissected brain tissue was fixed, embedded, sectioned, stained with antibodies to BrdU, and evaluated by light microcopy as a means of quantifying neurogenesis and survival of newborn neural precursor cells localized to the subgranular layer of the dentate gyrus on the brain hemisphere contralateral to the side of mini-pump cannulation. Every fifth section throughout the entire rostral-caudal extent of the hippocampus was analyzed, and the total number of BrdU+ cells was normalized against the measured volume of the dentate gyrus. Because both increased proliferation and survival of newborn neurons are important screening parameters, the screen was conducted over seven days in order to cast a wide net to detect molecules that might augment either process. […] Intracranial infusions of either fibroblast growth factor 2 (FGF-2) or artificial cerebral spinal fluid (aCSF) vehicle via the same, week-long protocol were employed as positive and negative controls. There was no difference in the number of BrdU-labeled cells in the dentate gyrus between mice subjected to surgical pump implantation and infusion with vehicle, and mice having had no surgery (FIG. 2). This confirmed the validity of the in vivo approach to assess the ability of intracerebroventricularly infused compounds to enhance hippocampal neurogenesis in the contralateral hemisphere.
In order to further study Example 45 Compound, an in vivo structure activity relationship (SAR) study was conducted using 37 chemical derivatives of the compound for pro-neurogenic activity via direct administration into the brain of adult mice via Alzet minipumps. Compounds were administered for one week at 10 uM into 4 mice per compound, along with daily IP injections of BrdU. Following compound administration, animals were perfused, sacrificed and subjected to sectioning, staining and light microscopy in order to monitor hippocampal neurogenesis localized to the subgranular layer of the dentate gyrus. Roughly 10% of the variant compounds retained pro-neurogenic activity indistinguishable from the parent compound. […]

For another data set, the system named is G93A-SOD1 mutant mice. Put plainly: Neurological score and weight loss in G93A-SOD1 mice, treatment from day 80. Type of data set: in vivo, mouse. The conditions noted are these: daily treatment from day 80. As to the method: Neurological score was performed every day starting with compound treatment at 80 days, and was determined as follows: ‘0’=full extension of hind legs away from lateral midline when the test mouse was suspended by its tail, and could hold this for 2 seconds, suspended 2-3 times; ‘1’=collapse or partial collapse of leg extension towards lateral midline (weakness) or trembling of hind legs during tail suspension; ‘2’=toes curl under at least twice during walking of 12 inches, or any part of foot drags along cage bottom/table; ‘3’=rigid paralysis or minimal joint movement, foot not being used for forward motion; and ‘4’=mouse cannot right itself within 30 seconds from either side. Upon reaching a score of 2, animals were given a fresh Petri dish with wet food in the dish daily. When mice achieved a score of 4 for two consecutive days they were euthanized.
Mice were weighed daily starting on the day of initiation of compound administration in order to assess disease progression and readjust compound dosage. A digital balance with a step of 0.01 g was used, and mice were placed in a small plastic container on the scale when weighed. Weight was taken between 11 am and 1 pm every day.

Another data set concerns HeLa cells. Put plainly: Toxicity to HeLa cells. In kind it is cell-based.
The target of another data set is hERG channel (Homo sapiens, UniProt Q12809). Kind of data set: hERG channel binding. Background: hERG is a cardiac potassium channel; its block is linked to QT prolongation.
Chain of hERG channel (Q12809 whole entry): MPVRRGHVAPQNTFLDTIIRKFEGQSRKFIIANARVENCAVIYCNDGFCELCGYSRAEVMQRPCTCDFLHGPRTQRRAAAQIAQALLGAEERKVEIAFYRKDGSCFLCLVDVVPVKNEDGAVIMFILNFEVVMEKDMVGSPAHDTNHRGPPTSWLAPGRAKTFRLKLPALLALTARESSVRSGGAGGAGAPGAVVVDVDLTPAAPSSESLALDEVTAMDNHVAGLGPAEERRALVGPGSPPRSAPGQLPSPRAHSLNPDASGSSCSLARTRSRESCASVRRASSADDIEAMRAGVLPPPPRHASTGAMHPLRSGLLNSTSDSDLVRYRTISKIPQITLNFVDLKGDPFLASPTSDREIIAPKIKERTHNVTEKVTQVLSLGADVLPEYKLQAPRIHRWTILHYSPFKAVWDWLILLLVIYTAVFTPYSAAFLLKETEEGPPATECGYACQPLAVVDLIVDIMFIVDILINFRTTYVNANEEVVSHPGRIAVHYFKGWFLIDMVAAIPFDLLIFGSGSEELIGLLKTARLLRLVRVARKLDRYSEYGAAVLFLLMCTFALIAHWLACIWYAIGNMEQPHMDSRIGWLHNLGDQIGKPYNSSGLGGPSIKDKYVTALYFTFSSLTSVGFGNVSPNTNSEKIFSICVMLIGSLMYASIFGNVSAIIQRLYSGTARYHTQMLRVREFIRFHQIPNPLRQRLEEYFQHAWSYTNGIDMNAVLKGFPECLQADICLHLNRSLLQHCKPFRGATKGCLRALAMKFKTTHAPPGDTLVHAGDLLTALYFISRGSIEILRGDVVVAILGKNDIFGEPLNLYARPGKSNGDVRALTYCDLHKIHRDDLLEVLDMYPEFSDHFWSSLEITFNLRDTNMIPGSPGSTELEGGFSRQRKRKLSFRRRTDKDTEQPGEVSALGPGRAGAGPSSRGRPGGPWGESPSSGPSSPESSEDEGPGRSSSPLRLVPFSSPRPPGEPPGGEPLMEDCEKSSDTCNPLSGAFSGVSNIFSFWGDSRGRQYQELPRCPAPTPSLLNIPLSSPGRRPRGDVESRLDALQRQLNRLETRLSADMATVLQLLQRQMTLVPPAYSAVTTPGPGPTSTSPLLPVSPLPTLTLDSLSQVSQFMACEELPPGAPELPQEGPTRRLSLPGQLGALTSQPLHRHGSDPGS
Another data set concerns histamine receptor. Kind of data set: Histamine receptor binding.

Consider `OC(CNc1ccccc1)Cn1c2ccc(Br)cc2c2cc(Br)ccc21` (centres unmarked) [Example P7C3], for which the “increase of DG neurogenesis (BrdU labeling) over vehicle” value in data set [1] is given as “about 100%”.
Consider `OC(CNc1cccc2ccccc12)Cn1c2ccc(Cl)cc2c2cc(Cl)ccc21` (centres unmarked) [Example P7C3-S184], for which the “pro-neurogenic activity in the in vivo hippocampal neurogenesis assay” value in data set [2] was “inactive in both in vivo assays”.
As for `OC(CNc1ccccc1)Cn1c2ccc(Br)cc2c2cc(Br)ccc21` (centres unmarked) [Example 45 Compound], the “pro-neurogenic activity in the in vivo hippocampal neurogenesis assay” value in data set [2] is given as “pro-neurogenic or neuroprotective activity at both concentrations”. The “ceiling of efficacy relative to Dimebon in the in vivo test of hippocampal neurogenesis” value in data set [2] (higher than Dimebon) is recorded as “roughly 40%”.
Take `COc1cccc(NCC(F)Cn2c3ccc(Br)cc3c3cc(Br)ccc32)c1` (centres unmarked) [Example P7C3A20, N-(3-(3,6-dibromo-9H-carbazol-9-yl)-2-fluoropropyl)-3-methoxyaniline]: the “other measures of disease progression (neurological score or weight loss)” value in the data set on G93A-SOD1 mutant mice was “did not observe any delay in other measures of disease progression”. Moreover, in the data set on HeLa cells, the “toxicity to HeLa cells” value is reported as “no hERG channel binding, histamine receptor binding or toxicity to HeLa cells”. The hERG channel binding entry at hERG channel is listed as “no hERG channel binding”. Moreover, the histamine receptor binding result with histamine receptor is reported as “no hERG channel binding, histamine receptor binding”.
